Tests used:
[1] = molecular target: human CB1 receptors (Homo sapiens (Human), UniProt P21554); experiment: functional cAMP assay, CB1; assay type: cell-based; conditions: functional cAMP assay, CHO cells expressing human CB1; read-out: human CB1 EC50
Protocol: (§1) CHO cells expressing human CB1 or CB2 receptors are seeded 17-24 hours prior to the experiment 50.000 cells per well in a black 96 well plate with flat clear bottom (Corning Costar #3904) in DMEM (Invitrogen No. 31331), 1×HT supplement, with 10% fetal calf serum and incubated at 5% CO2 and 37° C. in a humidified incubator. The growth medium was exchanged with Krebs Ringer Bicarbonate buffer with 1 mM IBMX and incubated at 30° C. for 30 min. Compounds were added to a final assay volume of 100 μl and incubated for 30 min at 30° C. Using the cAMP-Nano-TRF detection kit the assay (Roche Diagnostics) was stopped by the addition of 50 μl lysis reagent (Tris, NaCl, 1.5% Triton X100, 2.5% NP40, 10% NaN3) and 50 μl detection solutions (20 μM mAb Alexa700-cAMP 1:1, and 48 μM Ruthenium-2-AHA-cAMP) and shaken for 2 h at room temperature. The time-resolved energy transfer is measured by a TRF reader (Evotec Technologies GmbH), equipped with a ND:YAG laser as excitation source. The plate is measured twice with the excitation at 355 nm and at the emission with a delay of 100 ns and a gate of 100 ns, total exposure time 10s at 730 (bandwidth 30 nm) or 645 nm (bandwidth 75 nm), respectively. The FRET signal is calculated as follows: FRET=T730-Alexa730-P(T645-B645) with P=Ru730-B730/Ru645-B645, where T730 is the test well measured at […], T645 is the test well measured at 645 nm, B730 and B645 are the buffer controls at 730 nm and 645 nm, respectively. cAMP content is determined from the function of a standard curve spanning from 10 μM to 0.13 nM cAMP.
(§2) EC50 values were determined using Activity Base analysis (ID Business Solution, Limited). The EC50 values for a wide range of cannabinoid agonists generated from this assay were in agreement with the values published in the scientific literature.

[2] = molecular target: human CB2 receptors (Homo sapiens (Human), UniProt P34972); experiment: functional cAMP assay, CB2; assay type: cell-based; conditions: functional cAMP assay, CHO cells expressing human CB2; read-out: human CB2 EC50
Chain of human CB2 receptors (P34972 whole entry): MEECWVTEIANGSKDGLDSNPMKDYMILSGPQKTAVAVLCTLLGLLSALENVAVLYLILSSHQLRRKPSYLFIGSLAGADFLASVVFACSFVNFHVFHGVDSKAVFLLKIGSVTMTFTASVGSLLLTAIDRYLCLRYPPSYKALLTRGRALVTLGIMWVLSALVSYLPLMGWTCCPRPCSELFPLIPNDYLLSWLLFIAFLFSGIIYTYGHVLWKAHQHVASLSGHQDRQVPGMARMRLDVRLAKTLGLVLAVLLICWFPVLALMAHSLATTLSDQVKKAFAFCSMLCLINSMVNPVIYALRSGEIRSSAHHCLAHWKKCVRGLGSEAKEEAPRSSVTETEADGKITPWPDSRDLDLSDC
Protocol: as §1, §2

Chain of human CB1 receptors (P21554 whole entry): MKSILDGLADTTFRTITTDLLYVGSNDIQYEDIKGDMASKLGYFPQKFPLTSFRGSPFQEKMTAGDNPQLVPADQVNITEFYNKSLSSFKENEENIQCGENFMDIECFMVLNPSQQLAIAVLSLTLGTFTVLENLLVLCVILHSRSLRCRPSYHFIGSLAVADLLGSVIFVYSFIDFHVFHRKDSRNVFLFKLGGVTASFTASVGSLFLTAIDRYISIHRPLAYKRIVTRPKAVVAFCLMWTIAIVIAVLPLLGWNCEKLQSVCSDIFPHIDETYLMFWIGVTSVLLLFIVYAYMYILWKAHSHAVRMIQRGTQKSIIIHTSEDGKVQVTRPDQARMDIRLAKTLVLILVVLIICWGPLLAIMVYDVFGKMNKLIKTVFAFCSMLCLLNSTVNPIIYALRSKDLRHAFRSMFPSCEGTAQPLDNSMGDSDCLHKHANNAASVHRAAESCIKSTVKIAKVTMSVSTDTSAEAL

For `CNC(=O)[C@@H](NC(=O)c1cnc(N2CC(F)(F)C2)c(OCC2CC2)n1)C(C)(C)C` [Example 8, 6-Cyclopropylmethoxy-5-(3,3-difluoro-azetidin-1-yl)-pyrazine-2-carboxylic acid ((S)-2,2-dimethyl-1-methylcarbamoyl-propyl)-amide], the EC50 [1] was > 10000 nM and the EC50 [2] was 18.5 nM.

`Cc1nc(C2(NC(=O)c3cnc(N4CC(F)(F)C4)c(OCC4CC4)n3)CCC2)no1` [Example 9, 6-Cyclopropylmethoxy-5-(3,3-difluoro-azetidin-1-yl)-pyrazine-2-carboxylic acid [1-(5-methyl-[1,2,4]oxadiazol-3-yl)-cyclobutyl]-amide] showed an EC50 [1] of 1290 nM and an EC50 [2] of 87.9 nM.

For `CC(C)(CCO)NC(=O)c1cnc(C2CC2)c(OCC2CC2)n1` [Example 10, 5-Cyclopropyl-6-cyclopropylmethoxy-pyrazine-2-carboxylic acid (3-hydroxy-1,1-dimethyl-propyl)-amide], the EC50 [1] was > 10000 nM and the EC50 [2] was 257 nM.

`O=C(NC1(CO)CCC1)c1cnc(C2CC2)c(OCC2CC2)n1` [Example 11, 5-Cyclopropyl-6-cyclopropylmethoxy-pyrazine-2-carboxylic acid (1-hydroxymethyl-cyclobutyl)-amide] showed an EC50 [1] of 3320 nM and an EC50 [2] of 124 nM.

In the case of `Cc1nc(C2(NC(=O)c3cnc(C4CC4)c(OCC4CC4)n3)CCC2)no1` [Example 12, 5-Cyclopropyl-6-cyclopropylmethoxy-pyrazine-2-carboxylic acid [1-(5-methyl-[1,2,4]oxadiazol-3-yl)-cyclobutyl]-amide], the EC50 [1] is reported as > 10000 nM and the EC50 [2] is reported as 85.2 nM.

In the case of `CCC(C)(CO)NC(=O)c1cnc(C2CC2)c(OCC2CC2)n1` (stereo not drawn) [Example 13, 5-Cyclopropyl-6-cyclopropylmethoxy-pyrazine-2-carboxylic acid (1-hydroxymethyl-1-methyl-propyl)-amide], the EC50 [1] is reported as > 10000 nM and the EC50 [2] is reported as 63.4 nM.

With `CNC(=O)[C@@H](NC(=O)c1cnc(C2CC2)c(OCC2CC2)n1)C(C)(C)C` [Example 14, 5-Cyclopropyl-6-cyclopropylmethoxy-pyrazine-2-carboxylic acid ((S)-2,2-dimethyl-1-methylcarbamoyl-propyl)-amide] the EC50 [1] was 155 nM and the EC50 [2] was 6.8 nM.

`NC(=O)[C@@H](NC(=O)c1cnc(C2CC2)c(OCC2CC2)n1)c1ccccc1` [Example 15, 5-Cyclopropyl-6-cyclopropylmethoxy-pyrazine-2-carboxylic acid ((S)-carbamoyl-phenyl-methyl)-amide] was tested, and the EC50 [1] was > 10000 nM and the EC50 [2] was 141 nM.

With `CC(C)(O)[C@H](CC1CC1)NC(=O)c1cnc(N2CC(F)(F)C2)c(OCC2CC2)n1` [Example 16, 6-Cyclopropylmethoxy-5-(3,3-difluoro-azetidin-1-yl)-pyrazine-2-carboxylic acid ((S)-1-cyclopropylmethyl-2-hydroxy-2-methyl-propyl)-amide] the EC50 [1] was > 10000 nM and the EC50 [2] was 36.9 nM.

In the case of `CC(C)(C)C(CO)NC(=O)c1cnc(C2CC2)c(OCC2CC2)n1` (stereo not drawn) [Example 19, 5-Cyclopropyl-6-cyclopropylmethoxy-pyrazine-2-carboxylic acid (1-hydroxymethyl-2,2-dimethyl-propyl)-amide], the EC50 [1] is reported as > 10000 nM and the EC50 [2] is reported as 53.5 nM.

For `Cc1nc([C@H](CC2CC2)NC(=O)c2cnc(N3CC(F)(F)C3)c(OCC3CC3)n2)no1` [Example 20, 6-Cyclopropylmethoxy-5-(3,3-difluoro-azetidin-1-yl)-pyrazine-2-carboxylic acid [(S)-2-cyclopropyl-1-(5-methyl-[1,2,4]oxadiazol-3-yl)-ethyl]-amide], the EC50 [1] was > 10000 nM and the EC50 [2] was 28.4 nM.

In the case of `O=C(NC(CO)C1CC1)c1cnc(N2CC(F)(F)C2)c(OCC2CC2)n1` (stereo not drawn) [Example 21, 6-Cyclopropylmethoxy-5-(3,3-difluoro-azetidin-1-yl)-pyrazine-2-carboxylic acid (1-cyclopropyl-2-hydroxy-ethyl)-amide], the EC50 [1] is reported as > 10000 nM and the EC50 [2] is reported as 61.3 nM.

For `NC(=O)[C@@H](NC(=O)c1cnc(N2CC(F)(F)C2)c(OCC2CC2)n1)c1ccccc1` [Example 22, 6-Cyclopropylmethoxy-5-(3,3-difluoro-azetidin-1-yl)-pyrazine-2-carboxylic acid ((S)-carbamoyl-phenyl-methyl)-amide], the EC50 [1] was > 10000 nM and the EC50 [2] was 93 nM.

`COC(=O)[C@@H](NC(=O)c1cnc(C2CC2)c(OCC2CC2)n1)C(C)(C)C` [Example 23, (S)-2-[(5-Cyclopropyl-6-cyclopropylmethoxy-pyrazine-2-carbonyl)-amino]-3,3-dimethyl-butyric acid methyl ester] was tested, and the EC50 [1] was 157 nM and the EC50 [2] was 1.7 nM.

`CNC(=O)[C@H](CC1CC1)NC(=O)c1cnc(C2CC2)c(OCC2CC2)n1` [Example 24, 5-Cyclopropyl-6-cyclopropylmethoxy-pyrazine-2-carboxylic acid ((S)-2-cyclopropyl-1-methylcarbamoyl-ethyl)-amide] was tested, and the EC50 [1] was > 10000 nM and the EC50 [2] was 199 nM.

With `CN(C)C(=O)[C@H](CC1CC1)NC(=O)c1cnc(C2CC2)c(OCC2CC2)n1` [Example 25, 5-Cyclopropyl-6-cyclopropylmethoxy-pyrazine-2-carboxylic acid ((S)-2-cyclopropyl-1-dimethylcarbamoyl-ethyl)-amide] the EC50 [1] was > 10000 nM and the EC50 [2] was 14.6 nM.

For `CNC(=O)[C@H](CC(C)C)NC(=O)c1cnc(C2CC2)c(OCC2CC2)n1` [Example 26, 5-Cyclopropyl-6-cyclopropylmethoxy-pyrazine-2-carboxylic acid ((S)-3-methyl-1-methylcarbamoyl-butyl)-amide], the EC50 [1] was > 10000 nM and the EC50 [2] was 13.5 nM.

In the case of `CC(C)C[C@H](NC(=O)c1cnc(C2CC2)c(OCC2CC2)n1)C(=O)N(C)C` [Example 27, 5-Cyclopropyl-6-cyclopropylmethoxy-pyrazine-2-carboxylic acid ((S)-1-dimethylcarbamoyl-3-methyl-butyl)-amide], the EC50 [1] is reported as > 10000 nM and the EC50 [2] is reported as 2.7 nM.

`NC(=O)[C@H](CC1CC1)NC(=O)c1cnc(C2CC2)c(OCC2CC2)n1` [Example 28, 5-Cyclopropyl-6-cyclopropylmethoxy-pyrazine-2-carboxylic acid ((S)-1-carbamoyl-2-cyclopropyl-ethyl)-amide] was tested, and the EC50 [1] was > 10000 nM and the EC50 [2] was 43.5 nM.

`CC(C)C[C@H](NC(=O)c1cnc(C2CC2)c(OCC2CC2)n1)C(N)=O` [Example 29, 5-Cyclopropyl-6-cyclopropylmethoxy-pyrazine-2-carboxylic acid ((S)-1-carbamoyl-3-methyl-butyl)-amide] showed an EC50 [1] of 1570 nM and an EC50 [2] of 4.1 nM.

`CCC(CC)(NC(=O)c1cnc(C2CC2)c(OCC2CC2)n1)C(=O)OC` [Example 30, 2-[(5-Cyclopropyl-6-cyclopropylmethoxy-pyrazine-2-carbonyl)-amino]-2-ethyl-butyric acid methyl ester] was tested, and the EC50 [1] was 255 nM and the EC50 [2] was 1.4 nM.

For `CNC(=O)[C@H](CC1CC1)NC(=O)c1cnc(N2CC(F)(F)C2)c(OCC2CC2)n1` [Example 31, 6-Cyclopropylmethoxy-5-(3,3-difluoro-azetidin-1-yl)-pyrazine-2-carboxylic acid ((S)-2-cyclopropyl-1-methylcarbamoyl-ethyl)-amide], the EC50 [1] was > 10000 nM and the EC50 [2] was 124 nM.

In the case of `CN(C)C(=O)[C@H](CC1CC1)NC(=O)c1cnc(N2CC(F)(F)C2)c(OCC2CC2)n1` [Example 32, 6-Cyclopropylmethoxy-5-(3,3-difluoro-azetidin-1-yl)-pyrazine-2-carboxylic acid ((S)-2-cyclopropyl-1-dimethylcarbamoyl-ethyl)-amide], the EC50 [1] is reported as > 10000 nM and the EC50 [2] is reported as 59.6 nM.

In the case of `CNC(=O)[C@H](CC(C)C)NC(=O)c1cnc(N2CC(F)(F)C2)c(OCC2CC2)n1` [Example 33, 6-Cyclopropylmethoxy-5-(3,3-difluoro-azetidin-1-yl)-pyrazine-2-carboxylic acid ((S)-3-methyl-1-methylcarbamoyl-butyl)-amide], the EC50 [1] is reported as > 10000 nM and the EC50 [2] is reported as 11.8 nM.

With `CC(C)C[C@H](NC(=O)c1cnc(N2CC(F)(F)C2)c(OCC2CC2)n1)C(=O)N(C)C` [Example 34, 6-Cyclopropylmethoxy-5-(3,3-difluoro-azetidin-1-yl)-pyrazine-2-carboxylic acid ((S)-1-dimethylcarbamoyl-3-methyl-butyl)-amide] the EC50 [1] was > 10000 nM and the EC50 [2] was 13.6 nM.

With `COC(=O)[C@H](CC1CC1)NC(=O)c1cnc(C2CC2)c(OCC2CC2)n1` [Example 35, (S)-3-Cyclopropyl-2-[(5-cyclopropyl-6-cyclopropylmethoxy-pyrazine-2-carbonyl)-amino]-propionic acid methyl ester] the EC50 [1] was > 10000 nM and the EC50 [2] was 43.3 nM.

For `COC(=O)[C@H](CC1CC1)NC(=O)c1cnc(N2CC(F)(F)C2)c(OCC2CC2)n1` [Example 36, (S)-3-Cyclopropyl-2-{[6-cyclopropylmethoxy-5-(3,3-difluoro-azetidin-1-yl)-pyrazine-2-carbonyl]-amino}-propionic acid methyl ester], the EC50 [1] was > 10000 nM and the EC50 [2] was 9.6 nM.
